Experiments:
[1] = system: zebra fish Crohn's disease model established with TNBS; test: Efficacy in zebra fish Crohn's disease model (intestinal area, diameter, therapeutic ratio); assay type: in vivo; settings: 10 μM in fish farm water, 48 hours
Procedure: Meanwhile, the positive control group, blank control group, Crohn's disease model group and excipient control group were set in the research. In the positive control group, the prednisolone was finally at concentration of 10 μM in fish farm water. The enema excipient disclosed in Chinese patent (CN 1192787 C) was used in the excipient control group, including adding PEG-400 solutions containing tragacanth and potassium sorbate into the fish farm water in the volume ratio of 0.3%. Wherein, the PEG-400 solution was prepared following method: adding 1.5 g of tragacanth and 2 g of potassium sorbate (particle size of 150 μm) into 28ml PEG.
30 zebra fish were randomly given to each group. […] The image analysis software was used to analyze the pictures. Meanwhile, intestine mucosal thickness, intestinal diameter and intestinal area were observed carefully under the microscope and the intestinal diameter and intestinal area analyzed quantitatively. Therapeutic ratio of tested drug in zebra fish Crohn's disease was calculated in accordance with the intestinal area in each group. The calculation formula was present as follows: […]
Variance analysis was used for comparison among many groups and Dunnett's T test for comparison between two groups.

[2] = system: zebra fish Crohn's disease model; test: Histopathology of intestinal tissue in zebra fish Crohn's disease model (H&E); assay type: in vivo; settings: 10 μM in fish farm water
[3] = system: transgenic neutrophil fluorescent zebra fish Crohn's disease model; settings: 10 μM in fish farm water

## C[C@]12C=CC(=O)C=C1CC[C@@H]1[C@@H]2[C@@H](O)C[C@@]2(C)[C@H]1CC[C@]2(O)C(=O)CO [prednisolone]
[1]
  Intestinal area (Mean ± SD): 48646 ± 4685
  Intestinal area, Ratio of blank control group (Mean ± SE): 1.31 ± 0.04
  Intestinal diameter (Mean ± SD): 137 ± 11
  Intestinal diameter, Ratio of blank control group (Mean ± SE): 1.02 ± 0.03
[1]; from intestinal area
  Therapeutic ratio (%) (Mean ± SE): 74±3.40%
[2]
  Intestinal histopathology (H&E): the intestinal mucosal histopathology was improved obviously
[3]
  Inflammation regression ratio (%) (Mean ± SE): 81±2.48%
  Number of neutrophil (Mean ± SD): 20 ± 1
  Number of neutrophil, Ratio of the blank control group (Mean ± SE): 1.22 ± 0.03
